Reference: US11977086B2, “Biomarker detection from breath samples” (Hound Labs, Inc., priority 2019, dated 2024)

What was measured:
[1] = compared with THC; cited from earlier work
[2] = THC in breath after smoking, samples collected with a Hound Labs device and analyzed by mass spectrometry; format: in vivo, human
[3] = pH>8; cited from earlier work

SMILES: CCCCCc1cc2c(c(O)c1C(=O)O)[C@@H]1C=C(C)CC[C@H]1C(C)(C)O2 [THCA]
- resistance to oxidation [1]: higher resistance to oxidation

SMILES: CCCCCc1cc(O)c2c(c1)OC(C)(C)[C@@H]1CCC(C)=C[C@@H]21 [THC, tetrahydrocannabinol]
- measured amount of THC in breath sample indicative of recent usage ([2]; breath sample of 0.5 liters, usage within the three hours prior to collection): 1-10 picograms (pg)
- baseline breath THC, maximum ([2]; chronic or frequent smokers who have not smoked for several hours): ≤ 12 pg/5 L breath
- maximum baseline breath THC per liter ([2]; chronic users, 12 pg/5 L converted to per liter): ≤ 2.4 pg/L
- time THC is detected in breath after smoking ([2]; on average, 430 tests, smoking indoors or outdoors, mass spectrometry): 2 to 3 h
- solubility versus pH [3]: higher solubility
